According to patent publication US11752116B2, “Method of viral inhibition” (priority 2013, dated 2023):

Experiments:
Vero cells = assay: XTT cell viability assay in Vero cells; assay type: cell-based; details: 24 h, up to 25 μM
Protocol: To determine the effect of 4-HPR on cell viability, and to ensure that the reduced viral titres were not due to compound toxicity, XTT reagent was used to measure mitochondrial activity of drug treated cells. Briefly, Vero cells were incubated with 0, 1, 10 or 25 μM 4-HPR for 24 h. XTT reagent was added directly to cells and incubated for 6 h at 37° C. prior to spectrophotometric analysis. Data shown are the mean+SD of a single experiment performed in triplicate wells.

DENV-2 [1] = assay: Time-of-addition DENV-2 assay in Vero cells, intracellular viral RNA by qRT-PCR; assay type: cell-based; details: 10 μM for 2 h, added prior to, during, or up to 24 h p.i.
Protocol: To investigate whether 4-HPR can inhibit DENV-2 replication when added prior to infection or post infection (p.i.), 10 μM drug or DMSO (drug diluent) was added to Vero cells 2 h prior to infection, for 2 h during infection, 2 h p.i., or 24 h p.i. In each instance the drug was incubated with the cells for 2 h then removed. Infections were performed for 2 h (MOI of 1) followed by analysis of intracellular viral RNA by qRT-PCR 48 h p.i. Data shown are the mean+SD from one experiment, representative of three independent assays.

DENV-2 [2] = assay: Cell-based flavivirus immunodetection assay in BHK-21 cells, DENV-2; details: Dengue virus, DENV2, BHK-21, 48 h, read-out: EC50, DENV-2 replication
Protocol: (§1) To investigate this, BHK-21 cells were infected with DENV serotypes 1, 2, 3 or 4 (MOI of 0.3) for 1 h in the presence of 4-HPR or 4-MPR (concentrations as indicated in FIG. 6A). Virus inoculum was removed and fresh media containing the indicated compounds was added. Virus infection rates were determined 48 h p.i. using a cell-based flavivirus immunodetection assay. Briefly, cells were fixed and stained for DENV structural protein, E, followed by addition of Alexa Fluor 488 anti-mouse IgG. Viral antigen quantification was performed using Imagexpress. Data shown are representative of a single experiment

DENV-2 [3] = assay: DENV-2 infectivity assay in Vero cells, viral RNA copies in culture medium by RT-PCR; assay type: cell-based; details: MOI of 1
Protocol: To test the specificity of 4-HPR and 4-oxo-4-HPR for anti-DENV activity Vero cells were infected with DENV-2 with a multiplicity of infection (MOI) of 1, in the presence of drug diluent (untreated) or the indicated compounds (10 μM in FIG. 3A, or 10 μM or 5 μM as indicated in FIG. 3B) for 2 h, followed by removal of the virus/drug inoculums, and addition of fresh 2% FCS maintenance medium. At 24 h post infection (p.i.) the culture medium was collected and the viral RNA extracted using QIAamp viral RNA mini kit (Qiagen). Absolute RNA copies present in each sample were determined by Taqman One Step RT-PCR (Applied Biosystems), as an estimate of virus titre by extrapolation from a standard curve generated from in vitro transcribed DENV RNA. Data shown are the mean+standard error of the mean (SEM) for 3 (FIG. 3A) or 2 (FIG. 3B) independent experiments. Statistical analysis (Student's ttest) was performed using GraphPad Prism software.

DENV-4 = assay: Plaque assay in Huh-7 cells, DENV-4; assay type: cell-based; details: Dengue virus, DENV4, Huh-7, 48 h, read-out: EC50, infectious virus titre DENV 4
Protocol: (§2) To ensure the antiviral activity of 4-HPR is not cell-line specific Huh-7 cells were also infected with DENV-1, 2, 3 or 4 (MOI of 0.3) in the presence of increasing concentrations of 4-HPR, with infectious virus titres determined by plaque assay at 48 h p.i.

DENV-2 NS5 / IMPβ1 = DENV-2 NS5 / IMPβ1 (Dengue virus type 2, UniProt P14340); assay: AlphaScreen binding of His6-NS5 to biotinylated IMPβ1; details: 30 nM His6-NS5, 3 nM biotinylated IMPβ1, increasing concentrations of 4-HPR
Protocol: To investigate the specificity of 4-HPR inhibition of NS5-importin association, the binding of 30 nM His6-NS5 to 10 nM IMPα/β, (IMPα/β heterodimer containing biotinylated IMPβ1), 3 nM IMPαΔIBB (biotinylated IMPa with the IMPβ-binding domain removed), or 3 nM biotinylated IMPβ1, in the presence of increasing concentrations of 4-HPR, was investigated.

[4] = Cytotoxicity analysis in PBMCs; assay type: cell-based; details: human
DENV-2 strain (S221) = assay: Lethal mouse infection model, AG129 mice infected with mouse adapted DENV-2 strain S221; assay type: in vivo; details: 20 mg/kg orally
Source text: Mice have previously been used as an in vivo model for 4-HPR pharmacokinetics. To examine the effect of 4-HPR on DENV infection in vivo, a lethal mouse infection model, which uses a mouse adapted DENV-2 strain (S221), to infect Sv/129 mice deficient in type I and II interferon receptors (AG129) was used (Zellweger et al., 2010, Cell Host Microbe). Viral infection in this system is enhanced by intraperitoneal delivery of a sub-neutralizing concentration of 4G2 antibody 1 day prior to infection, resulting in peak viremia 3 days p.i. and death of infected mice by day 5. Here, mice were treated with 20 mg/kg of 4-HPR, administered orally at the time of infection, then once (QD) or twice (BID) daily for 5 consecutive days. Consistent with previous reports, infected, untreated mice all died by day 5 (FIG. 8B). Once daily treatment of mice with 4-HPR was sufficient to provide protection to 20% of mice, which recovered from the infectious challenge, whereas increasing the dose to 2 treatments daily, improved protection to 70% (7 of 10 mice recovered from the infectious challenge).
Data are the mean+SEM. Statistical analysis (Student's t test) was performed using Graph Pad Prism software (ns, not significant).

DENV-3 [5] = assay: Plaque assay in Huh-7 cells, DENV-3; assay type: cell-based; details: Dengue virus, DENV3, Huh-7, 48 h, read-out: EC50, infectious virus titre DENV 3
Protocol: as §2

DENV-2 [6] = assay: Delayed addition in DENV-2 infected Huh-7 cells, viral titre by plaque assay; assay type: cell-based; details: 7.5 μM added 12 h p.i., at 60 h p.i.
Protocol: To gain further insight into the mode of action of 4-HPR, the human liver carcinoma cell line, Huh-7 cells were infected with DENV-2 (MOI of 1), followed by delayed addition of drug diluent DMSO (DENV only), 7.5 μM 4-HPR, 7.5 μM 4-MPR or 10 μM NITD008 (a previously described adenosine nucleoside inhibitor), 12 h post infection. Cells were lysed at the indicated times, RNA was extracted by Trizol and analysed by qPCR with fold change in expression of NS1 calculated relative to the untreated control (FIG. 5B). Concurrently, culture medium was collected and viral titres determined by plaque assay (FIG. 5C).

DENV-3 [7] = assay: Cell-based flavivirus immunodetection assay in BHK-21 cells, DENV-3; details: MOI of 0.3, 48 h p.i.
Protocol: as §1

Structure (SMILES): CC1=C(/C=C/C(C)=C/C=C/C(C)=C/C(=O)Nc2ccc(O)cc2)C(C)(C)CCC1 [4-HPR, N-(4-hydroxyphenyl) retinamide]
- effect on cell viability (XTT) (Vero cells): no effect on cell viability
- intracellular DENV-2 RNA copies 48 h p.i. (DENV-2 [1]): substantial reduction
- EC50 (DENV-2 [2]): 2240 nM
- reduction in viral RNA copies at 24 h p.i. (DENV-2 [3]; 5 μM compound for 2 h during infection): ~1 log
- reduction in viral RNA copies at 24 h p.i. (DENV-2 [3]; 10 μM compound for 2 h during infection): 2 log
- EC50 (DENV-4): 2100 nM
- NS5 binding to IMPβ1 alone (DENV-2 NS5 / IMPβ1): largely unaffected
- CC50 at 48 h [4]: > 13000 nM
- average plasma viral titre lower than untreated group, 3 days p.i. (DENV-2 strain (S221); BID treatment group): 65%
- average plasma viral titre 3 days p.i. (DENV-2 strain (S221); QD treatment group): small reduction
- protection (mice recovered from the infectious challenge) (DENV-2 strain (S221); once daily (QD) for 5 days): 20%
- protection (mice recovered from the infectious challenge) (DENV-2 strain (S221); twice daily (BID) for 5 days): 70%
- EC50 (DENV-3 [5]): 1400 nM
- virus titre lower than untreated and 4-MPR-treated controls (DENV-2 [6]): 3 logs
- EC50, DENV-3 replication (DENV-3 [7]): low EC50
